≈ marks a conversion by molar mass, not a printed value. Calls of active or inactive are those of the source. The calls are words filed in the database; no cut-off is given here.
How the values were obtained:
[1] = test system: Mycobacterium tuberculosis; experiment: Antitubercular activity against Mycobacterium tuberculosis H37Rv ATCC 27294 assessed as inhibition of bacterial growth cultured in Middlebrook 7H9/ADC/Tween 80 with cydC::aph medium for 2 weeks; type: functional; settings: H37Rv ATCC 27294, 336 h
[2] = test system: Mycobacterium tuberculosis; experiment: Antitubercular activity against Mycobacterium tuberculosis K10b00DS assessed as inhibition of bacterial growth incubated for 2 weeks; type: functional; settings: 336 h
[3] = test system: Mycobacterium tuberculosis; experiment: Antitubercular activity against Mycobacterium tuberculosis K16b00DS assessed as inhibition of bacterial growth incubated for 2 weeks; type: functional; settings: 336 h
[4] = test system: Mycobacterium tuberculosis; experiment: Antitubercular activity against Mycobacterium tuberculosis H37Rv ATCC 27294 assessed as inhibition of bacterial growth cultured in Middlebrook 7H9/BSA/Tyloxapol with glucose medium for 2 weeks; type: functional; settings: H37Rv ATCC 27294, 336 h
[5] = test system: Mycobacterium tuberculosis; experiment: Antitubercular activity against Mycobacterium tuberculosis CDC1551 assessed as inhibition of bacterial growth incubated for 2 weeks; type: functional; settings: CDC1551, 336 h
[6] = test system: Mycobacterium tuberculosis; experiment: Antitubercular activity against Mycobacterium tuberculosis infected in mouse J774 cells assessed as decrease in colony forming unit enumeration on solid medium at 5XMIC measured after 7 days; type: functional, organism-based; settings: time 7.0 day
[7] = Cytotoxicity against human HepG2 cells assessed as reduction in cell viability incubated for 24 hrs in DMEM/10% FBS supplemented with galactose by CellTiter-Glo luminescent assay; type: toxicity, cell-based
[8] = test system: Mycobacterium tuberculosis; experiment: Antitubercular activity against Mycobacterium tuberculosis NIH_G12 assessed as inhibition of bacterial growth incubated for 2 weeks; type: functional; settings: NIH_G12, 336 h
[9] = test system: Mycobacterium tuberculosis; experiment: Antitubercular activity against Mycobacterium tuberculosis K17b00DS assessed as inhibition of bacterial growth incubated for 2 weeks; type: functional; settings: 336 h
[10] = target: T1, Decaprenylphosphoryl-beta-D-ribose oxidase (Mycobacterium tuberculosis (strain ATCC 25618 / H37Rv)) (UniProt P9WJF1); experiment: Inhibition of DprE1-mediated cell wall synthesis in Mycobacterium tuberculosis H37Rv transfected with PiniB-LUX reporter assessed as induction of reporter gene expression incubated for 12 days by bioluminescence analysis; settings: time 12.0 day
T1 sequence (whole entry): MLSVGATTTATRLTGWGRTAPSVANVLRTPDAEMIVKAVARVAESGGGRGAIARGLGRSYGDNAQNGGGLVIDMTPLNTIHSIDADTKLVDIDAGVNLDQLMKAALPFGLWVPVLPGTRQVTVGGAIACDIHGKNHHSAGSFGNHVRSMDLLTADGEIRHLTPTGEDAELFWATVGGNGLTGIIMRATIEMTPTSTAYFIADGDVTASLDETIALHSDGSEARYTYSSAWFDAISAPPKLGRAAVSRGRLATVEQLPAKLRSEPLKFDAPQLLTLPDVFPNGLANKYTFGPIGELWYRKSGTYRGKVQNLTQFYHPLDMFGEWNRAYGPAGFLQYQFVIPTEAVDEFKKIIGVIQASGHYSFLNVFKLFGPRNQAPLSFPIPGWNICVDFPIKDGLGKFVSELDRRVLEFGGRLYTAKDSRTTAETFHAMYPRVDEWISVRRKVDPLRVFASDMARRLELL

[11] = test system: Mycobacterium tuberculosis; experiment: Antitubercular activity against Mycobacterium tuberculosis Erdman assessed as inhibition of bacterial growth incubated for 2 weeks; type: functional; settings: 336 h
[12] = test system: Mycobacterium tuberculosis; experiment: Antitubercular activity against Mycobacterium tuberculosis K15b00DS assessed as inhibition of bacterial growth incubated for 2 weeks; type: functional; settings: 336 h
[13] = test system: Mycobacterium tuberculosis; experiment: Antitubercular activity against Mycobacterium tuberculosis K07b00DS assessed as inhibition of bacterial growth incubated for 2 weeks; type: functional; settings: 336 h
[14] = test system: Mycobacterium tuberculosis; experiment: Induction of DNA damage in Mycobacterium tuberculosis H37Rv transfected with PradA-LUX reporter assessed as induction of radA reporter gene expression incubated for 12 days by bioluminescence analysis; type: functional, organism-based; settings: time 12.0 day
[15] = test system: Mycobacterium tuberculosis; experiment: Antitubercular activity against Mycobacterium tuberculosis HN878 assessed as inhibition of bacterial growth incubated for 2 weeks; type: functional; settings: HN878, 336 h
[16] = test system: Mycobacterium tuberculosis; experiment: Antitubercular activity against Mycobacterium tuberculosis K05b00DS assessed as inhibition of bacterial growth incubated for 2 weeks; type: functional; settings: 336 h
[17] = test system: Mycobacterium tuberculosis; experiment: Antitubercular activity against Mycobacterium tuberculosis K14b00DS assessed as inhibition of bacterial growth incubated for 2 weeks; type: functional; settings: 336 h
[18] = test system: Mycobacterium tuberculosis; experiment: Antitubercular activity against Mycobacterium tuberculosis H37Rv ATCC 27294 assessed as inhibition of bacterial growth cultured in Middlebrook 7H9/glucose/casitone/tyloxapol medium for 2 weeks; type: functional; settings: H37Rv ATCC 27294, 336 h
[19] = test system: Mycobacterium tuberculosis; experiment: Antitubercular activity against Mycobacterium tuberculosis K11b00DS assessed as inhibition of bacterial growth incubated for 2 weeks; type: functional; settings: 336 h
[20] = test system: Mycobacterium tuberculosis; experiment: Antitubercular activity against Mycobacterium tuberculosis K35b00DS assessed as inhibition of bacterial growth incubated for 2 weeks; type: functional; settings: 336 h
[21] = test system: Mycobacterium tuberculosis; experiment: Antitubercular activity against Mycobacterium tuberculosis H37RV ATCC 27294 assessed as inhibition of bacterial growth cultured in Middlebrook 7H9/cholesterol/BSA/Tyloxapol medium for 2 weeks; type: functional; settings: H37Rv ATCC 27294, 336 h
[22] = test system: Mycobacterium tuberculosis; experiment: Antitubercular activity against Mycobacterium tuberculosis K13b00DS assessed as inhibition of bacterial growth incubated for 2 weeks; type: functional; settings: 336 h
[23] = test system: Mycobacterium tuberculosis; experiment: Antitubercular activity against Mycobacterium tuberculosis K09b00DS assessed as inhibition of bacterial growth incubated for 2 weeks; type: functional; settings: 336 h
[24] = test system: Mycobacterium tuberculosis; experiment: Antitubercular activity against Mycobacterium tuberculosis H37Rv ATCC 27294 assessed as inhibition of bacterial growth cultured in Middlebrook 7H9/ADC/Tween 80 medium for 2 weeks; type: functional; settings: H37Rv ATCC 27294, 336 h
[25] = test system: Mycobacterium tuberculosis; experiment: Antitubercular activity against Mycobacterium tuberculosis clinical strain K5072429 assessed as inhibition of bacterial growth incubated for 2 weeks; type: functional; settings: K5072429, 336 h
[26] = test system: Mycobacterium tuberculosis; experiment: Induction of DNA damage in Mycobacterium tuberculosis H37Rv transfected with PrecA-LUX reporter assessed as induction of recA reporter gene expression incubated for 12 days by bioluminescence analysis; type: functional, organism-based; settings: time 12.0 day
[27] = test system: Mycobacterium tuberculosis; experiment: Antitubercular activity against Mycobacterium tuberculosis H37Rv ATCC 27294 assessed as inhibition of bacterial growth cultured in Middlebrook 7H9/DPPC/cholesterol/BSA/Tyloxapol medium for 2 weeks; type: functional; settings: H37Rv ATCC 27294, 336 h
[28] = test system: Mycobacterium tuberculosis; experiment: Antitubercular activity against Mycobacterium tuberculosis K12b00DS assessed as inhibition of bacterial growth incubated for 2 weeks; type: functional; settings: 336 h
[29] = test system: Mycobacterium tuberculosis; experiment: Antitubercular activity against Mycobacterium tuberculosis H37Rv ATCC 27294 assessed as inhibition of bacterial growth incubated for 2 weeks; type: functional; settings: H37Rv ATCC 27294, 336 h
[30] = Cytotoxicity against human HepG2 cells assessed as reduction in cell viability incubated for 24 hrs in DMEM/10% FBS supplemented with glucose by CellTiter-Glo luminescent assay; type: toxicity, cell-based
[31] = test system: Mycobacterium tuberculosis; experiment: Antitubercular activity against Mycobacterium tuberculosis K04b00DS assessed as inhibition of bacterial growth incubated for 2 weeks; type: functional; settings: 336 h

Structure (SMILES)	MIC [2]	MIC [3]	MIC [5]	MIC [8]	MIC [9]	MIC [11]	MIC [12]	MIC [13]	MIC [15]	MIC [16]	MIC [17]	MIC [19]	MIC [20]	MIC [22]	MIC [23]	MIC [25]	MIC [28]	MIC [29]	MIC [31]	further results
O=C(C1CCN(c2nnc(-c3ccccc3)o2)CC1)N1CCC(Cc2ccccc2)CC1	1.2 µM (≈ 0.517 µg/mL)	0.78 µM (≈ 0.336 µg/mL)	0.6 µM (≈ 0.258 µg/mL)	0.78 µM (≈ 0.336 µg/mL)	0.78 µM (≈ 0.336 µg/mL)	0.39 µM (≈ 0.168 µg/mL)	0.78 µM (≈ 0.336 µg/mL)	1.2 µM (≈ 0.517 µg/mL)	0.78 µM (≈ 0.336 µg/mL)	1.2 µM (≈ 0.517 µg/mL)	1.2 µM (≈ 0.517 µg/mL)	1.56 µM (≈ 0.672 µg/mL)	1.2 µM (≈ 0.517 µg/mL)	1.2 µM (≈ 0.517 µg/mL)	1.2 µM (≈ 0.517 µg/mL)	2.3 µM (≈ 0.99 µg/mL)	1.56 µM (≈ 0.672 µg/mL)	0.6 µM (≈ 0.258 µg/mL)	0.78 µM (≈ 0.336 µg/mL)	MIC [1]: 0.6 µM (≈ 0.258 µg/mL); MIC [4]: 0.78 µM (≈ 0.336 µg/mL); Activity [6]: Active; IC50 at 24 h [7]: 37.5 µM; inhibition [10]: Active; Activity [14]: inactive; MIC [18]: 0.1 µM (≈ 0.0431 µg/mL); MIC [21]: 0.78 µM (≈ 0.336 µg/mL); MIC [24]: 0.78 µM (≈ 0.336 µg/mL); Activity [26]: inactive; MIC [27]: 0.6 µM (≈ 0.258 µg/mL); IC50 at 24 h [30]: > 50 µM
COc1nc2ccc(Br)cc2cc1[C@@H](c1ccccc1)[C@@](O)(CCN(C)C)c1cccc2ccccc12 [BEDAQUILINE]	0.1 µM (≈ 0.0556 µg/mL)	0.1 µM (≈ 0.0556 µg/mL)	0.07 µM (≈ 0.0389 µg/mL)	0.05 µM (≈ 0.0278 µg/mL)	0.07 µM (≈ 0.0389 µg/mL)	0.1 µM (≈ 0.0556 µg/mL)	0.07 µM (≈ 0.0389 µg/mL)	0.15 µM (≈ 0.0833 µg/mL)	0.05 µM (≈ 0.0278 µg/mL)	0.05 µM (≈ 0.0278 µg/mL)	0.6 µM (≈ 0.333 µg/mL)	0.3 µM (≈ 0.167 µg/mL)	0.07 µM (≈ 0.0389 µg/mL)	0.1 µM (≈ 0.0556 µg/mL)	0.2 µM (≈ 0.111 µg/mL)	0.2 µM (≈ 0.111 µg/mL)	0.04 µM (≈ 0.0222 µg/mL)	0.15 µM (≈ 0.0833 µg/mL)	0.04 µM (≈ 0.0222 µg/mL)	
